Source: US7615554B2, “Erastin and erastin binding proteins, and uses thereof” (Prolexys Pharmaceuticals, Inc., priority 2005, dated 2009)

Tests used:
[1] = test system: BJ-TERT/LT/ST/RAS^V12 cells; assay: Nuclear morphology assay; assay type: cell-based, human
From the text: Applicants sought to characterize the type of cell death induced by CPT and erastin in tumorigenic BJ-TERT/LT/ST/RAS^V12 cells. […] To determine whether erastin or CPT induces apoptosis in their system, Applicants monitored the nuclear morphology of CPT- and erastin-treated tumorigenic cells using fluorescence microscopy. […] Since nuclear morphological change is required of apoptotic cells, Applicants conclude that cell death induced by erastin is non-apoptotic. […] Additionally, nuclei remained intact in erastin-treated tumor cells (FIG. 9).
200,000 tumorigenic BJ-TERT/LT/ST/RAS^V12 cells were seeded in 2 mL on glass coverslips in each well of a six-well dish, treated with nothing (NT), 9 μM erastin or 1.1 μM camptothecin (CPT) in growth medium for 18 hours while incubating at 37° C. with 5% CO2. Nuclei were stained with 25 μg/mL Hoechst 33342 (Molecular Probes) and viewed using an oil immersion 100× objective on a fluorescence microscope.

[2] = test system: BJ-TERT/LT/ST/RAS^V12 cells; assay: Western blot for active caspase-3; assay type: cell-based, human
Description: BJ-TERT/LT/ST/RAS^V12 cells were seeded prior to the experiment at 5×10^5 cells in 60 mm dishes. The cells were treated with 5 μg/ml erastin (9 μM) for 2, 4, 6, 8 or 10 hours. One dish was maintained for camptothecin treatment (0.4 μlg/ml for 24 h) as a positive control. Cells were lysed after each time point in lysis buffer (50 mM HEPES KOH pH 7.4, […], 2 mM EDTA, 0.5% Triton X-100, 1.5 mM Na3VO4, 50 mM NaF, 10 mM sodium pyrophosphate, 10 mM sodium beta-glycerophosphate and protease inhibitor tablet (Roche)). Protein content was quantified using a Biorad protein assay reagent. Equal amounts of protein were resolved on 16% SDS-polyacrylamide gel. The electrophoresed proteins were transblotted onto a PVDF membrane, blocked with 5% milk and incubated with anti-active caspase-3 polyclonal antibody (BD Pharmingen) at 1:1500 dilution overnight at 4° C. The membrane was then incubated in anti-rabbit-HRP (Santa Cruz Biotechnology) at 1:3000 dilution for 1 hour and developed with an enhanced chemiluminescence mixture (NEN life science, Renaissance). To test for equivalent loading in each lane, blots were stripped, blocked, and probed with an anti-eIF-4E antibody (BD Transduction laboratories) at 1:1000 dilution.

engineered cell lines = assay: Selectivity across the engineered cell lines (calcein AM IC50 ratios); assay type: cell-based, human; settings: from selectivity ratio for each subsequent pair of cell lines in a series
Description: To calculate this selectivity score between two cell lines, the IC50 for a compound in one cell line was divided by the IC50 for the same compound in a second cell line. […] The “tumor selectivity score” was calculated for each compound, by dividing the IC50 value for the compound in the parental, primary BJ cells by the IC50 value for the compound in engineered BJ-TERTALT/ST/RAS^V12 cells, containing all four genetic elements required to create tumorigenic cells (Table 1).
Applicants sought to determine the genetic basis of selectivity for each compound. That is, for each compound, they attempted to define the gene or combination of genes responsible for rendering cells sensitive to the compound (Table 1).
The IC50 in primary BJ cells was divided by the IC50 in BJ-TERT/LT/ST/RAS^V12 tumorigenic cells to obtain a tumor selectivity ratio for each compound. The compound selectivity for each genetic element was determined by calculating the selectivity ratio for each subsequent pair of cell lines in a series.

TIP5-TERT/LT cells = assay: Calcein AM viability assay, TIP5-TERT/LT cells; assay type: cell-based, human; settings: 16-point two-fold dilution
Description: (§1) Described here is work carried out to identify compounds with increased potency or activity in the presence of hTERT, LT, ST, E6, E7 or RAS^V12. Although the work described herein made use of hTERT, LT, ST, E6, E7 and RAS^V12 as transforming genes, future studies can make use of a wide variety of cancer-associated alleles using this methodology in order to define the signaling networks that involve many oncogenes and tumor suppressors. […] Cell viability was measured using the dye calcein acetoxymethyl ester (calcein AM) (Wang et al., 1993, Hum. Immunol. 37, 264-270), which is a non-fluorescent compound that freely diffuses into cells. […]
(§2) Calcein acetoxylmethyl ester (AM) is a cell membrane-permeable, non-fluorescent compound that is cleaved by intracellular esterases to form the anionic, cell-impermeable, fluorescent compound calcein. […] Total fluorescence intensity in each well was recorded on a Packard Fusion platereader, and converted to a percent inhibition of signal by subtracting the instrument background and dividing by the average signal obtained when cells were not treated with any compound. […]
(§3) Mean RFU (relative fluorescence units) for untreated cells was calculated by averaging columns 1, 2, and 23 (wells with cells but lacking compounds). The calcein background was calculated by averaging column 24 (wells with calcein, but lacking cells). […]

TIP5-TERT/E6E7/ST cells = assay: Calcein AM viability assay, TIP5-TERT/E6E7/ST cells; assay type: cell-based, human; settings: 16-point two-fold dilution
Description: as §1, §2, §3

BJ primary cells [3] = assay: Calcein AM viability assay, BJ cells; assay type: cell-based, human; settings: 16-point two-fold dilution
Description: as §1, §2, §3

[4] = test system: BJ-TERT/LT/RAS^V12/ST cells; assay: Calcein AM viability assay, BJ-TERT/LT/RAS^V12/ST cells; assay type: cell-based, human; settings: 16-point two-fold dilution
Description: as §1, §2, §3

BJ-TERT/LT/ST cells = assay: Calcein AM viability assay, BJ-TERT/LT/ST cells; assay type: cell-based, human; settings: 16-point two-fold dilution
Description: as §1, §2, §3

[5] = test system: TIP5-TERT/LT/ST/Ras^v12 cells; assay: Calcein AM viability assay, TIP5-TERT/LT/ST/Ras^v12 cells; assay type: cell-based, human; settings: 16-point two-fold dilution
Description: as §1, §2, §3

[6] = test system: TIP5-TERT/E6E7/ST/Ras^v12 cells; assay: Calcein AM viability assay, TIP5-TERT/E6E7/ST/Ras^v12 cells; assay type: cell-based, human; settings: 16-point two-fold dilution
Description: as §1, §2, §3

[7] = test system: BJ-TERT/LT/ST/RAS^V12 tumorigenic cells; assay: Calcein AM viability assay, BJ-TERT/LT/ST/RAS^V12 cells; assay type: cell-based, human; settings: BJ-TERT/LT/ST/Ras^v12; 16-point two-fold dilution
From the text: as §1, with “suppressors. Engineered cell lines with these genetic elements were used to screen 23,550 compounds, including 20,000 compounds from a combinatorial library, 1,990 compounds from the National Cancer Institute diversity collection, and 1,540 biologically active known compounds that were selected and purchased by Applicant and formatted into a screenable collection.” for “suppressors.”
as §2
as §3, with “cells). Percentage inhibition of each well was calculated as [1−(RFU−calcein control)/(untreated cell−calcein control)*100].” for “cells).”

TIP5-TERT cells = assay: Calcein AM viability assay, TIP5-TERT cells; assay type: cell-based, human; settings: 16-point two-fold dilution
Description: as §1, §2, §3

TIP5-TERT/E6E7 cells = assay: Calcein AM viability assay, TIP5-TERT/E6E7 cells; assay type: cell-based, human; settings: 16-point two-fold dilution
Description: as §1, §2, §3

TOP1 = assay: Western blot for TOP1 expression in BJ primary cells; assay type: cell-based, human
From the text: (A-C) Western blot of lysates from BJ, BJ-TERT, BJ-TERT/LT/ST, BJ-TERT/LT/ST/RAS^V12, BJ-TERT/LT/RAS^V12 and BJ-TERT/LT/RAS^V12/ST cells with an antibody directed against topoisomerase II (A) or TOPI (B, C). In panel (C), cells were transfected with a siRNA directed against TOPI, lamic A/C or with a control double strand DNA duplex of the same length (TOPI dsDNA). In each case, the blot was probed with an antibody against eIF-4E to identify differences in the amount of protein loaded. The relative amount is quantitated below each band. (D) A TOPI siRNA prevents cell death caused by camptothecin in engineered tumor cells. Cell number was determined after transfection with a siRNA directed against TOPI and treatment with the indicated concentrations of camptothecin. (E) Okadaic acid, an inhibitor of PP2A and other cellular phosphatases, sensitizes primary human cells to camptothecin. BJ primary cells were treated simultaneously with the indicated concentrations of both camptothecin and okadaic acid and the effect on calcein AM viability staining was determined. […] BJ primary cells were treated with the indicated concentrations of okadaic acid and the expression level of TOPI was determined by western blot. The relative amount is quantitated below each band. […]

BJ primary cells [8] = assay: Sensitization of BJ primary cells by co-treatment (calcein AM viability); assay type: cell-based, human
From the text: (A-C) Western blot of lysates from BJ, BJ-TERT, BJ-TERT/LT/ST, BJ-TERT/LT/ST/RAS^V12, BJ-TERT/LT/RAS^V12 and BJ-TERT/LT/RAS^V12/ST cells with an antibody directed against topoisomerase II (A) or TOPI (B, C). In panel (C), cells were transfected with a siRNA directed against TOPI, lamic A/C or with a control double strand DNA duplex of the same length (TOPI dsDNA). In each case, the blot was probed with an antibody against eIF-4E to identify differences in the amount of protein loaded. The relative amount is quantitated below each band. (D) A TOPI siRNA prevents cell death caused by camptothecin in engineered tumor cells. Cell number was determined after transfection with a siRNA directed against TOPI and treatment with the indicated concentrations of camptothecin. (E) Okadaic acid, an inhibitor of PP2A and other cellular phosphatases, sensitizes primary human cells to camptothecin. BJ primary cells were treated simultaneously with the indicated concentrations of both camptothecin and okadaic acid and the effect on calcein AM viability staining was determined. […] BJ primary cells were treated with the indicated concentrations of okadaic acid and the expression level of TOPI was determined by western blot. The relative amount is quantitated below each band.
The compounds in group (iii) are camptothecin (CPT) and a novel compound from a combinatorial library, which Applicants have named erastin, for eradicator of RAS and ST-expressing cells (FIG. 2). Efficient CPT-induced and erastin-induced cell death requires the presence of both ST and RAS^V12 (FIGS. 3 and 4 and Table 1). Although CPT and erastin have a similar genetic basis of selectivity, they have distinct mechanisms of action. CPT is partially active in cells lacking RB function (via expression of E7), whereas erastin is not, and CPT requires two days to cause death in BJ-TERT/LT/ST/RAS^V12 cells, while erastin is 100% effective within 18 hours (FIGS. 3 and 4). […]

[9] = test system: tumor cells versus normal cells; assay: Erastin analogs tested for activity and selectivity in tumor cells versus normal cells; assay type: cell-based
From the text: Applicants additionally tested 135 analogs of erastin for activity and selectivity in tumor cells versus normal cells. […] This compound was named erastin B (see FIG. 8). In certain embodiments of the invention, the invention relates to the compound, erastin.
Applicants additionally tested other analogs of erastin for activity and selectivity in tumor cells versus normal cells. […] This compound was named erastin B (see FIG. 8). BJELR cells are BJ-TERT/LT/ST/RAS^V12 cells, and BJEH are BJ-TERT cells.

Compound: CC[C@@]1(O)C(=O)OCc2c1cc1n(c2=O)Cc2cc3ccccc3nc2-1 [Camptothecin]
- nuclear morphology by fluorescence microscopy ([1]; 9 μM erastin or 1.1 μM camptothecin, 18 hours): karyorhexis and margination of chromatin were clearly visible
- fragmented nuclei ([1]; BJ-TERT/LT/ST/RAS^V12 cells): 10-20 % of total nuclei
- cleaved, active caspase 3 [2]: appearance of cleaved, active caspase 3
- Genetic basis of Selectivity (engineered cell lines): RAS^v12/PP2A/RB

Compound: Cc1c2ccccc2c(CSC(=N)N)c2ccccc12.Cl [NSC146109]
- concentration required to achieve 50% inhibition of calcein AM staining (IC50) (TIP5-TERT/LT cells): >5 µg/mL
- concentration required to achieve 50% inhibition of calcein AM staining (IC50) (TIP5-TERT/E6E7/ST cells): 2.5 µg/mL
- concentration required to achieve 50% inhibition of calcein AM staining (IC50) (BJ primary cells [3]): >5 µg/mL
- concentration required to achieve 50% inhibition of calcein AM staining (IC50) [4]: 2.5 µg/mL
- concentration required to achieve 50% inhibition of calcein AM staining (IC50) (BJ-TERT/LT/ST cells): 2.5 µg/mL
- concentration required to achieve 50% inhibition of calcein AM staining (IC50) [5]: 2.5 µg/mL
- concentration required to achieve 50% inhibition of calcein AM staining (IC50) [6]: 2.5 µg/mL
- concentration required to achieve 50% inhibition of calcein AM staining (IC50) [7]: 2.5 µg/mL
- concentration required to achieve 50% inhibition of calcein AM staining (IC50) (TIP5-TERT cells): >5 µg/mL
- concentration required to achieve 50% inhibition of calcein AM staining (IC50) (TIP5-TERT/E6E7 cells): 2.5 µg/mL
- Genetic basis of Selectivity (engineered cell lines): non-specific

Compound: C=C1[C@@H](O)[C@@H]2O[C@]3(CC[C@H](/C=C/[C@@H](C)[C@@H]4CC(C)=C[C@@]5(O[C@H](C[C@@](C)(O)C(=O)O)CC[C@H]5O)O4)O3)CC[C@H]2O[C@@H]1[C@@H](O)C[C@H](C)[C@H]1O[C@@]2(CCCCO2)CC[C@H]1C [okadaic acid]
- expression level of TOP1 by western blot (TOP1): stimulates expression of TOP1
- sensitization to camptothecin (BJ primary cells [8]; BJ (or BJ-TERT) cells, simultaneous treatment with camptothecin): renders BJ cells sensitive to camptothecin
- sensitization to erastin (BJ primary cells [8]; BJ or BJ-TERT cells): does not render BJ or BJ-TERT cells sensitive to erastin

Compound: erastin B
- activity and selectivity of erastin analogs/derivatives [9]: active and selective, but less potent than erastin
